From patent US20210277015A1, “OGA INHIBITOR COMPOUNDS” (Janssen Pharmaceutica NV, priority 2018, published 2021)

Molecular target: T1, recombinant human Meningioma Expressed Antigen 5 (MGEA5), also referred to as O-GlcNAcase (OGA) (Homo sapiens, UniProt O60502)
T1 construct: Full length OGA enzyme was purchased at OriGene (cat #TP322411); purchased OriGene TP322411
T1 sequence (O60502 1-916): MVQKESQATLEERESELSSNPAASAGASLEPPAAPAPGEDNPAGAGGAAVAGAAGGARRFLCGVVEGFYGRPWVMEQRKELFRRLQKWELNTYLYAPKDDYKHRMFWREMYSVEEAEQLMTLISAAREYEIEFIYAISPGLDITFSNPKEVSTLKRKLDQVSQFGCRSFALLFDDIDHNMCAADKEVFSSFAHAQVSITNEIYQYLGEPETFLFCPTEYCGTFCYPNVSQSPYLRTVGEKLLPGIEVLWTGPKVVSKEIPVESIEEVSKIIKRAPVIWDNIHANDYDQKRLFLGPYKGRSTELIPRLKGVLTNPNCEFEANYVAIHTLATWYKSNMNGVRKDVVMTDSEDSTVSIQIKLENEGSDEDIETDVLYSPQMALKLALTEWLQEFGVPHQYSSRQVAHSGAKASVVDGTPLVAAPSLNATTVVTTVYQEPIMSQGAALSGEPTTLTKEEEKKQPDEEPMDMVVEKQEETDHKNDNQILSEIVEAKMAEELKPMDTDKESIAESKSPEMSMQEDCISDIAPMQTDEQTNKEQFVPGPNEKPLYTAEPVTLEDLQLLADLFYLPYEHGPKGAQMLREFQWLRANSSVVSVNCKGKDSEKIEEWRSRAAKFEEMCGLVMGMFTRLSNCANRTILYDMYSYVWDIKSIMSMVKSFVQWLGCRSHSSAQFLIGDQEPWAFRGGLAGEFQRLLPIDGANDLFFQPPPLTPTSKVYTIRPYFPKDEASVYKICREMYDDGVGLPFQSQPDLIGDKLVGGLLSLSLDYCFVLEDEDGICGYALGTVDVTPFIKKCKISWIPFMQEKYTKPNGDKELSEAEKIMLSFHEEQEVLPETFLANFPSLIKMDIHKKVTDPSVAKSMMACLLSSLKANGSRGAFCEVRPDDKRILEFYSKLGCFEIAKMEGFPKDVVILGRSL
Assay: OGA biochemical assay (inhibition of FM-GlcNAc hydrolysis, fluorescence)
Conditions: FM-GlcNAc substrate; for IC50: 6 h at room temperature, read-out: Enzymatic hOGA, pIC50 (converted); for Emax / Enzymatic Emax (%): maximal effect; for Emax: read-out: Enzymatic Emax (%)
From the text: The assay is based on the inhibition of the hydrolysis of fluorescein mono-β-D-N-Acetyl-Glucosamine (FM-GlcNAc) (Mariappa et al. 2015, Biochem J 470:255) by the recombinant human Meningioma Expressed Antigen 5 (MGEA5), also referred to as O-GlcNAcase (OGA). The hydrolysis FM-GlcNAc (Marker Gene technologies, cat #M1485) results in the formation of β-D-N-glucosamineacetate and fluorescein. The fluorescence of the latter can be measured at excitation wavelength 485 nm and emission wavelength 538 nm. An increase in enzyme activity results in an increase in fluorescence signal. Full length OGA enzyme was purchased at OriGene (cat #TP322411). The enzyme was stored in 25 mM Tris.HCl, pH 7.3, 100 mM glycine, 10% glycerol at −20° C. Thiamet G and GlcNAcStatin were tested as reference compounds (Yuzwa et al. 2008 Nature Chemical Biology 4:483; Yuzwa et al. 2012 Nature Chemical Biology 8:393). The assay was performed in 200 mM Citrate/phosphate buffer supplemented with 0.005% Tween-20. 35.6 g Na2HPO4 2 H2O (Sigma, #C0759) were dissolved in 1 L water to obtain a 200 mM solution. 19.2 g citric acid (Merck, #1.06580) was dissolved in 1 L water to obtain a 100 mM solution. pH of the sodium phosphate solution was adjusted with the citric acid solution to 7.2. The buffer to stop the reaction consists of a 500 mM Carbonate buffer, pH 11.0. 734 mg FM-GlcNAc were dissolved in 5.48 mL DMSO to obtain a 250 mM solution and was stored at −20° C. OGA was used at a 2 nM concentration and FM-GlcNAc at a 100 uM final concentration. Dilutions were prepared in assay buffer.
50 nl of a compound dissolved in DMSO was dispensed on Black Proxiplate™ 384 Plus Assay plates (Perkin Elmer, #6008269) and 3 μl fl-OGA enzyme mix added subsequently. Plates were pre-incubated for 60 min at room temperature and then 2 μl FM-GlcNAc substrate mix added. […] Plates were briefly centrifuged for 1 min at 1000 rpm and incubate at room temperature for 6 h. To stop the reaction 5 μl STOP buffer were added and plates centrifuge again 1 min at 1000 rpm. Fluorescence was quantified in the Thermo Scientific Fluoroskan Ascent or the PerkinElmer EnVision with excitation wavelength 485 nm and emission wavelength 538 nm.
For analysis a best-fit curve is fitted by a minimum sum of squares method. From this an IC50 value and Hill coefficient was obtained. High control (no inhibitor) and low control (saturating concentrations of standard inhibitor) were used to define the minimum and maximum values.

Compound | IC50 [nM] | Emax [%] | Enzymatic Emax (%)
Cc1cc(O[C@H]2CCN(C(C)c3ccc4c(n3)OCCO4)C2)cc(C)n1 (mixture of isomers) [Product 70] | 1260 | 94 | –
Cc1cc(C[C@H]2CCN([C@H](C)c3ccc4c(c3)OCC4)C2)cc(C)n1 (single isomer, unassigned) [Product 13] | 1000 | 91 | –
C[C@H](c1ccc2c(n1)OCCO2)N1CC[C@H](Cc2ncc(F)cc2F)C1 (single isomer, unassigned) [Product 22] | > 10000 | 32 | –
CC(c1ccc2c(n1)OCCO2)N1CC[C@H](Cc2ncc(F)cc2F)C1 (single isomer, unassigned) [Product 23] | 398 | 97 | –
Cc1cnc(C[C@H]2CCN(C(C)c3ccc4c(n3)OCCO4)C2)c(C)n1 (single isomer, unassigned) [Product 25] | 158 | – | 100
Cc1cnc(C[C@H]2CCN(C(C)c3ccc4c(n3)OCCO4)C2)c(C)n1 (single isomer, unassigned) [Product 26] | > 10000 | – | 35
CC(c1cc2c(cc1F)OCCO2)N1CC[C@H](Cc2ncc(F)cc2F)C1 (single isomer, unassigned) [Product 28] | 5010 | – | 67
COc1cc(O[C@H]2CCN(C(C)c3ccc4c(n3)OCCO4)C2)cc(C)n1 (single isomer, unassigned) [Product 64] | 398 | 99 | –
Cc1cc(C[C@H]2CCN(C(C)c3ccc4c(c3)OCCN4C)C2)cc(C)n1 (stereo partly drawn) [Product 1] | 2000 | 85 | –
Cc1cc(C[C@H]2CCN(Cc3ccc4c(c3)OCCN4C)C2)cc(C)n1 [Product 2] | 6170 | 61 | –
Cc1cc(C2CCN(C(C)c3ccc4c(n3)OCCO4)C2)cc(C)n1 (stereo not drawn) [Product 3] | 501 | 99 | –
COc1cc(C[C@H]2CCN(C(C)c3ccc4c(n3)OCCO4)C2)cc(C(F)(F)F)n1 (stereo partly drawn) [Product 4] | 100 | 103 | –
Cc1cc(C[C@H]2CCN(C(C)c3ccc4c(n3)OCCO4)C2)cc(C)n1 (stereo partly drawn) [Product 12] | 158 | 101 | –
CC(c1ccc2c(n1)OCCO2)N1CC[C@H](Cc2ncc(F)cc2F)C1 (stereo partly drawn) [Product 21] | 631 | 94 | –
Cc1cnc(C[C@H]2CCN(C(C)c3ccc4c(n3)OCCO4)C2)c(C)n1 (stereo partly drawn) [Product 24] | 251 | 101 | –
CC(c1cc2c(cc1F)OCCO2)N1CC[C@H](Cc2ncc(F)cc2F)C1 (stereo partly drawn) [Product 27] | 126 | 102 | –
Cc1cc(C[C@H]2CCN(C(C)c3cc4c(cc3F)OCCO4)C2)cc(C)n1 (stereo partly drawn) [Product 30] | 20 | 102 | –
Cc1cc(C[C@H]2CCN([C@H](C)c3cc4c(cc3F)OCCO4)C2)cc(C)n1 [Product 31] | 631 | 96 | –
COc1cc(C[C@H]2CCN(C(C)c3cnc4c(c3)C(=O)N(C)CC4)C2)cc(C)n1 (stereo partly drawn) [Product 33] | 126 | 102 | –
COc1cc(C[C@H]2CCN([C@H](C)c3cnc4c(c3)C(=O)N(C)CC4)C2)cc(C)n1 [Product 34] | 7940 | 58 | –
COc1cc(C[C@@H]2CCN([C@H](C)c3cc4c(cc3F)OCCO4)C2)cc(C)n1 [Product 42] | 1000 | 93 | –
Cc1cc(C[C@@H]2CCN([C@H](C)c3cc4c(cc3F)OCCO4)C2)cc(C)n1 [Product 44] | 251 | 99 | –
Cc1cc(OC[C@@H]2CCN(C(C)c3ccc4c(n3)OCCO4)C2)cc(C)n1 (stereo partly drawn) [Product 46] | 251 | 97 | –
COc1cc(O[C@H]2CCN(C(C)c3ccc4c(n3)OCCO4)C2)cc(C)n1 (stereo partly drawn) [Product 63] | 1000 | 95 | –

Second part, the compound after the results:

IC50 [nM] | Emax [%] | Enzymatic Emax (%) | Compound
1580 | 84 | – | COc1cc(O[C@@H]2CCN(C(C)c3ccc4c(n3)OCCO4)C2)cc(C)n1 (mixture of isomers) [Product 76]
158 | 100 | – | COc1cc(CC2(C)CCN(C(C)c3ccc4c(n3)OCCO4)C2)cc(C)n1 (mixture of isomers) [Product 91]
63.1 | 101 | – | Cc1cnc(C[C@H]2CCN(C(C)c3cc4c(cc3F)OCCO4)C2)c(C)n1 (mixture of isomers) [Product 96]
63.1 | 101 | – | Cc1cc(C[C@@H]2CCN(C(C)c3ccc4c(n3)OCCO4)C2)cc(C)n1 (mixture of isomers) [Product 78]
794 | 92 | – | COc1cc(C[C@H]2CCN([C@H](C)c3cc4c(cc3F)NCCO4)C2)cc(C)n1 (racemic) [Product 81]
100 | 100 | – | COc1cc(C[C@@H]2CCN(C(C)c3ccc4c(n3)OCCO4)C2)cc(C)n1 (mixture of isomers) [Product 89]
200 | – | 99 | COc1cc(C[C@H]2CCN(C(C)c3nc4c(cc3F)CCO4)C2)cc(C)n1 (single isomer, unassigned) [Product 85]
126 | – | 99 | COc1cc(C[C@H]2CCN(C(C)c3ccc4c(n3)OCCC4)C2)cc(C)n1 (single isomer, unassigned) [Product 87]
> 10000 | – | 38 | COc1cc(C[C@H]2CCN(C(C)c3ccc4c(n3)OCCC4)C2)cc(C)n1 (single isomer, unassigned) [Product 88]
6310 | 63 | – | COc1cc(C[C@]2(C)CCN([C@H](C)c3ccc4c(n3)OCCO4)C2)cc(C)n1 (single isomer, unassigned) [Product 92]
7940 | 55 | – | COc1cc(C[C@]2(C)CCN([C@@H](C)c3ccc4c(n3)OCCO4)C2)cc(C)n1 (single isomer, unassigned) [Product 93]
1000 | 93 | – | COc1cc(C[C@@]2(C)CCN([C@H](C)c3ccc4c(n3)OCCO4)C2)cc(C)n1 (single isomer, unassigned) [Product 94]
> 10000 | – | 37 | Cc1cnc(C[C@H]2CCN(C(C)c3cc4c(cc3F)OCCO4)C2)c(C)n1 (single isomer, unassigned) [Product 97]
31.6 | – | 103 | Cc1cnc(C[C@H]2CCN(C(C)c3cc4c(cc3F)OCCO4)C2)c(C)n1 (single isomer, unassigned) [Product 98]
794 | 94 | – | Cc1cc(OCC2(C)CCN(C(C)c3ccc4c(n3)OCCO4)C2)cc(C)n1 (stereo not drawn) [Product 77]
